Assays:
[1] = target: T1, G12C-mutant human KRAS (amino acid residues 1-188) (Homo sapiens, UniProt P01116, G12C); experiment: KRAS Binding Disruption Assay (AlphaScreen; biotinylated KRpep-2d analogue or RAF1-RBD), G12C; settings: geometric mean, read-out: KRAS GMean IC50 (uM) MUTATION: G12C
T1 construct: G12D or G12C-mutant human KRAS (amino acid residues 1-188) with FLAG tag; made in house; host or cells: E. coli
Procedure, shortened: (§1)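 Mutant KRAS (5-20 nM) incubated 1 h at 25° C with test compound and 5-20 nM biotinylated KRpep-2d analogue or RAF1-RBD in 20 mM HEPES pH 7.5, 100 mM NaCl, 5 mM MgCl2, 0.01% Tween-20, 0.01% BSA.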

[2] = target: T2, G12V-mutant human KRAS (amino acid residues 1-188) (Homo sapiens, UniProt P01116, G12V); experiment: KRAS Binding Competition Assay (AlphaScreen; biotinylated KRpep-2d analogue), G12V; settings: geometric mean, read-out: KRAS GMean IC50 (uM) MUTATION: G12V
T2 construct: G12V-mutant human KRAS (amino acid residues 1-188) with FLAG tag was purified from E. coli; made in house; host or cells: E. coli

[3] = target: T3, G12D-mutant human KRAS (amino acid residues 1-188) (Homo sapiens, UniProt P01116, G12D); experiment: KRAS Binding Disruption Assay (AlphaScreen; biotinylated KRpep-2d analogue or RAF1-RBD), G12D; settings: KRAS G12D; geometric mean; read-out: KRAS GMean IC50 (uM) MUTATION: G12D
T3 construct: G12D or G12C-mutant human KRAS (amino acid residues 1-188) with FLAG tag; made in house; host or cells: E. coli
Procedure, shortened: as §1

Measured: IC50

O=C1CC(CC(=O)N2[C@@H]3CC[C@H]2CN(c2nc(OCC45CCCN4CCC5)nc4c(F)c(-c5cc(O)cc6ccccc56)ccc24)C3)C(=O)N1 (stereo partly drawn) [P-0356, 3-(2-((1R,5S)-3-(8-fluoro-7-(3-hydroxynaphthalen-1-yl)-2-((tetrahydro-1H-pyrrolizin-7a(5H)-yl)methoxy)quinazolin-4-yl)-3,8-diazabicyclo[3.2.1]octan-8-yl)-2-oxoethyl)pyrrolidine-2,5-dione]
0.0001 to 10 µM: all assays above

CN1CCC[C@H]1COc1nc(N2CC3COCC(C2)N3)c2cc(Cl)c(-c3cc(O)cc4cccc(Cl)c34)c(F)c2n1 [P-0365, 4-(4-(3-oxa-7,9-diazabicyclo[3.3.1]nonan-7-yl)-6-chloro-8-fluoro-2-(((S)-1-methylpyrrolidin-2-yl)methoxy)quinazolin-7-yl)-5-chloronaphthalen-2-ol]
0.0001 to 10 µM: all assays above

O=C1NC(=O)C(CC(=O)N2[C@@H]3CC[C@H]2CN(c2nc(OCC45CCCN4CCC5)nc4c(F)c(-c5cc(O)cc6ccccc56)ccc24)C3)N1 (stereo partly drawn) [P-0366]
0.0001 to 10 µM: all assays above

O=C1NC(=O)C(CCC(=O)N2[C@@H]3CC[C@H]2CN(c2nc(OCC45CCCN4CCC5)nc4c(F)c(-c5cc(O)cc6ccccc56)ccc24)C3)N1 (stereo partly drawn) [P-0375, 5-(3-((1R,5S)-3-(8-fluoro-7-(3-hydroxynaphthalen-1-yl)-2-((tetrahydro-1H-pyrrolizin-7a(5H)-yl)methoxy)quinazolin-4-yl)-3,8-diazabicyclo[3.2.1]octan-8-yl)-3-oxopropyl)imidazolidine-2,4-dione]
0.0001 to 10 µM: all assays above

NC1=NC(=O)C(CC(=O)N2[C@@H]3CC[C@H]2CN(c2nc(OCC45CCCN4CCC5)nc4c(F)c(-c5cc(O)cc6ccccc56)ccc24)C3)S1 (stereo partly drawn) [P-0384, 2-amino-5-(2-((1R,5S)-3-(8-fluoro-7-(3-hydroxynaphthalen-1-yl)-2-((tetrahydro-1H-pyrrolizin-7a(5H)-yl)methoxy)quinazolin-4-yl)-3,8-diazabicyclo[3.2.1]octan-8-yl)-2-oxoethyl)thiazol-4 (5H)-one]
0.0001 to 10 µM: all assays above

O=C(Cn1ccnc1)N1[C@@H]2CC[C@H]1CN(c1nc(OCC34CCCN3CCC4)nc3c(F)c(-c4cc(O)cc5ccccc45)ccc13)C2 [P-0387, 1-((1R,5S)-3-(8-fluoro-7-(3-hydroxynaphthalen-1-yl)-2-((tetrahydro-1H-pyrrolizin-7a(5H)-yl)methoxy)quinazolin-4-yl)-3,8-diazabicyclo[3.2.1]octan-8-yl)-2-(1H-imidazol-1-yl)ethan-1-one]
0.0001 to 10 µM: all assays above

CN1CCC[C@H]1COc1nc(N2C[C@H]3CC[C@@H](C2)N3C(=O)C(N)=O)c2ccc(-c3cc(O)cc4ccccc34)c(F)c2n1 [P-0397, 2-((1R,5S)-3-(8-fluoro-7-(3-hydroxynaphthalen-1-yl)-2-(((S)-1-methylpyrrolidin-2-yl)methoxy)quinazolin-4-yl)-3,8-diazabicyclo[3.2.1]octan-8-yl)-2-oxoacetamide]
0.0001 to 10 µM: all assays above

NS(=O)(=O)NCC(=O)N1[C@@H]2CC[C@H]1CN(c1nc(OCC34CCCN3CCC4)nc3c(F)c(-c4cc(O)cc5ccccc45)ccc13)C2 [P-0408, N-(2-((1R,5S)-3-(8-fluoro-7-(3-hydroxynaphthalen-1-yl)-2-((tetrahydro-1H-pyrrolizin-7a(5H)-yl)methoxy)quinazolin-4-yl)-3,8-diazabicyclo[3.2.1]octan-8-yl)-2-oxoethyl)aminosulfonamide]
0.0001 to 10 µM: all assays above

N#CC1(CC(=O)N2[C@@H]3CC[C@H]2CN(c2nc(OCC45CCCN4CCC5)nc4c(F)c(-c5cc(O)cc6ccccc56)ccc24)C3)CC1 [P-0409, 1-(2-((1R,5S)-3-(8-fluoro-7-(3-hydroxynaphthalen-1-yl)-2-((tetrahydro-1H-pyrrolizin-7a(5H)-yl)methoxy)quinazolin-4-yl)-3,8-diazabicyclo[3.2.1]octan-8-yl)-2-oxoethyl)cyclopropane-1-carbonitrile]
0.0001 to 10 µM: all assays above

O=C1N=C(S)SC1CC(=O)N1[C@@H]2CC[C@H]1CN(c1nc(OCC34CCCN3CCC4)nc3c(F)c(-c4cc(O)cc5ccccc45)ccc13)C2 (stereo partly drawn) [P-0411, 5-(2-((1R,5S)-3-(8-fluoro-7-(3-hydroxynaphthalen-1-yl)-2-((tetrahydro-1H-pyrrolizin-7a(5H)-yl)methoxy)quinazolin-4-yl)-3,8-diazabicyclo[3.2.1]octan-8-yl)-2-oxoethyl)-2-mercaptothiazol-4(5H)-one]
0.0001 to 10 µM: all assays above

CN1C(=O)SC(CC(=O)N2[C@@H]3CC[C@H]2CN(c2nc(OCC45CCCN4CCC5)nc4c(F)c(-c5cc(O)cc6ccccc56)ccc24)C3)C1=O (stereo partly drawn) [P-0412, 5-(2-((1R,5S)-3-(8-fluoro-7-(3-hydroxynaphthalen-1-yl)-2-((tetrahydro-1H-pyrrolizin-7a(5H)-yl)methoxy)quinazolin-4-yl)-3,8-diazabicyclo[3.2.1]octan-8-yl)-2-oxoethyl)-3-methylthiazolidine-2,4-dione]
0.0001 to 10 µM: all assays above

O=C1N[C@@H](CC(=O)N2[C@@H]3CC[C@H]2CN(c2nc(OCC45CCCN4CCC5)nc4c(F)c(-c5cc(O)cc6ccccc56)ccc24)C3)CO1 [P-0414, (S)-4-(2-((1R,5S)-3-(8-fluoro-7-(3-hydroxynaphthalen-1-yl)-2-((tetrahydro-1H-pyrrolizin-7a(5H)-yl)methoxy)quinazolin-4-yl)-3,8-diazabicyclo[3.2.1]octan-8-yl)-2-oxoethyl)oxazolidin-2-one]
0.0001 to 10 µM: all assays above

O=C1NC(=O)[C@H](CC(=O)N2[C@@H]3CC[C@H]2CN(c2nc(OCC45CCCN4CCC5)nc4c(F)c(-c5cc(O)cc6ccccc56)ccc24)C3)N1 [P-0415, (S)-5-(2-((1R,5S)-3-(8-fluoro-7-(3-hydroxynaphthalen-1-yl)-2-((tetrahydro-1H-pyrrolizin-7a(5H)-yl)methoxy)quinazolin-4-yl)-3,8-diazabicyclo[3.2.1]octan-8-yl)-2-oxoethyl)imidazolidine-2,4-dione]
0.0001 to 10 µM: all assays above

O=C1NC(=O)/C(=C/C(=O)N2[C@@H]3CC[C@H]2CN(c2nc(OCC45CCCN4CCC5)nc4c(F)c(-c5cc(O)cc6ccccc56)ccc24)C3)S1 [P-0443, (Z)-5-(2-((1R,5S)-3-(8-fluoro-7-(3-hydroxynaphthalen-1-yl)-2-((tetrahydro-1H-pyrrolizin-7a(5H)-yl)methoxy)quinazolin-4-yl)-3,8-diazabicyclo[3.2.1]octan-8-yl)-2-oxoethylidene)thiazolidine-2,4-dione]
0.0001 to 10 µM: all assays above
